Experimental data as given in PubChem BioAssay AID1845219 (Molecular Pharmacology Branch, DTP, NCI, 2023).

System: SYO-1 tumor spheroids, viability % test/control
Assay: Anticancer human tumor SYO-1 cell line growth inhibition;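 note: spheroids exposed to agents for 7 days before viability read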;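 for viability, T/C: 100% = DMSO vehicle control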
Details: spheroids with HUVEC and MSC; for IC50: curve of first compound; for viability, T/C: stronger effect = lower value; active = viability on the fitted dose curve at most 10% of control; inactive = the rest
Excerpt: Multicellular complex tumor spheroid response to DNA repair inhibitors in combination with DNA-damaging drugs
This study explores the anticancer activities of DNA-damaging drugs and inhibitors of DNA damage repair, both as single agents and in combinations. Complex tumor spheroids comprised of malignant cells, endothelial cells and mesenchymal stem cells served as an in vitro model for human solid tumors. This model system incorporates physiologically relevant features and patient-derived or established malignant cell lines with clinically relevant genetic alterations from many tumor types. Twenty-six patient-derived or established malignant cell lines were evaluated representing sarcoma, melanoma, small cell lung cancer (SCLC), non-small cell lung cancer (NSCLC), as well as bladder, ovarian and pancreatic cancers. The concentration ranges selected for each drug and investigational agent were based upon clinically achievable concentrations if the clinical Cmax of the agent was known.
Compounds. The drugs and compounds olaparib (NSC753686), talazoparib (NSC767125), berzosertib (NSC777718), elimusertib (NSC800525), nedisertib (NSC802822), VX-984 (NSC792969), AZD-1390 (NSC803789), temozolomide (NSC362856), topotecan (NSC609699), trabectedin (NSC813783), staurosporine (NSC755774), and gemcitabine (NSC613327) were obtained from the National Cancer Institute (NCI) Developmental Therapeutics Program Chemical Repository. The FDA-approved anticancer drug set is available from the Developmental Therapeutics Program at https://dtp.cancer.gov/organization/dscb/obtaining/available_plates.htm. […] The stock solutions were prepared in dimethyl sulfoxide (DMSO, Sigma-Aldrich, St. Louis, MO, cat. D2650) at 400-fold the tested concentration and stored at -70 degrees C. Prior to their use, the stock solutions were diluted in fresh medium and the final DMSO concentration in the assay was 0.25% (v/v). All drugs and investigational agents were tested over a range starting from a high concentration at or near the clinical Cmax and decreasing in half-log increments. If the clinical Cmax for an agent had not been determined, the highest concentration tested was 10 microM.
Cell Lines. The patient-derived cancer cell (PDC) lines: 156681-154-R-J1-PDC, 283228-195-R-J1-PDC, 287954-098-R-J1-PDC, 292921-168-R-J2-PDC, 349418-098-R-PDC, 425362-245-T-J1-PDC, 556581-035-R-J1-PDC, and BL0293-F563-PDC were received from the NCI Patient-Derived Models Repository (PDMR, https://pdmr.cancer.gov). The established cell lines HS-SY-2 (RRID:CVCL_8719), MPNST, and SYO-1 (RRID:CVCL_7146) were obtained from the Sloan Kettering Institute. The alveolar soft parts sarcoma cell line ASPS-1 (RRID:CVCL_S738) was established at the NCI and grown from internal seed stocks. The following established cell lines were purchased from the American Type Culture Collection (ATCC, Manassas, VA): G-401 (ATCC, cat. CRL-1441, RRID:CVCL_0270), SW982 (ATCC, cat. HTB-93, RRID:CVCL_1734), VA-ES-BJ (ATCC, cat. CRL-2138, RRID:CVCL_1785), NCI-H719 (ATCC, cat. CRL-5837, RRID:CVCL_1582), NCI-H196 (ATCC, cat. CRL-5823, RRID:CVCL_1509), NCI-H841 (ATCC, cat. CRL-5845, RRID:CVCL_1595), NCI-H1618 (ATCC, cat. CRL-5879, RRID:CVCL_1480), NCI-H1876 (ATCC, cat. CRL-5902, RRID:CVCL_1503), DMS 114 (ATCC, cat. CRL-2066; RRID:CVCL_1174), NCI-H211 (ATCC, cat. CRL-5824; RRID:CVCL_1529), and SW 1271 (ATCC, cat. CRL-2177, RRID:CVCL_1716). The small cell lung cancer cell line COR-L88 was purchased from Sigma-Aldrich (cat. 92031917-1VL, RRID:CVCL_1141). The non-small cell lung cancer cell lines NCI-H226 (RRID:CVCL_1544) and NCI-H322M (RRID:CVCL_1557) were established at the NCI and grown from internal seed stocks. Pooled donor human umbilical vein endothelial cells (HUVEC, Lonza, cat. CC-2519) and human mesenchymal stem cells (hMSC, Lonza, cat. PT-2501) were purchased from Lonza (Walkersville, MD).
Cell Culture. All cells were maintained in an incubator at 37 degrees C and 5% CO2 with 95% humidity. […]

O=C(c1cc(Cc2n[nH]c(=O)c3ccccc23)ccc1F)N1CCN(C(=O)C2CC2)CC1 + Cn1nnc2c(C(N)=O)ncn2c1=O
1620 nM: IC50 (second compound 3.16 µM)
1660 nM: IC50 (second compound 1 µM)
677 nM: IC50 (second compound 10 µM)
155 nM: IC50 (second compound 31.6 µM)
active: viability, T/C (second compound 1 µM, first compound 3 µM) 9.23% | viability, T/C (second compound 1 µM, first compound 9.49 µM) 2.81% | viability, T/C (second compound 1 µM, first compound 30 µM) 1.98% | viability, T/C (second compound 3.16 µM, first compound 3 µM) 6.01% | viability, T/C (second compound 3.16 µM, first compound 9.49 µM) 2.08% | viability, T/C (second compound 3.16 µM, first compound 30 µM) 1.94% | viability, T/C (second compound 10 µM, first compound 3 µM) 2.83% | viability, T/C (second compound 10 µM, first compound 9.49 µM) 1.83% | viability, T/C (second compound 10 µM, first compound 30 µM) 1.82% | viability, T/C (second compound 31.6 µM, first compound 0.949 µM) 3.35% | viability, T/C (second compound 31.6 µM, first compound 3 µM) 2.28% | viability, T/C (second compound 31.6 µM, first compound 9.49 µM) 2.18% | viability, T/C (second compound 31.6 µM, first compound 30 µM) 1.77% | viability, T/C (second compound 100 µM, first compound 0.0949 µM) 3.25% | viability, T/C (second compound 100 µM, first compound 0.3 µM) 2.69% | viability, T/C (second compound 100 µM, first compound 0.949 µM) 2.42% | viability, T/C (second compound 100 µM, first compound 3 µM) 2.49% | viability, T/C (second compound 100 µM, first compound 9.49 µM) 1.81% | viability, T/C (second compound 100 µM, first compound 30 µM) 1.75%
inactive: viability, T/C (second compound 1 µM, first compound 0.0949 µM) 103% | viability, T/C (second compound 1 µM, first compound 0.3 µM) 96.2% | viability, T/C (second compound 1 µM, first compound 0.949 µM) 88.9% | viability, T/C (second compound 3.16 µM, first compound 0.0949 µM) 103% | viability, T/C (second compound 3.16 µM, first compound 0.3 µM) 94.3% | viability, T/C (second compound 3.16 µM, first compound 0.949 µM) 88.4% | viability, T/C (second compound 10 µM, first compound 0.0949 µM) 103% | viability, T/C (second compound 10 µM, first compound 0.3 µM) 94.6% | viability, T/C (second compound 10 µM, first compound 0.949 µM) 31.6% | viability, T/C (second compound 31.6 µM, first compound 0.0949 µM) 76.8% | viability, T/C (second compound 31.6 µM, first compound 0.3 µM) 13.5%
< 94.9 nM: IC50 (second compound 100 µM)
